Measurements published in patent US20090170899A1, “Stimulators of 5-HT4 receptors and uses thereof” (priority 2004, published 2009).

Experiments:
[1] = Forced swimming test (FST); assay type: in vivo, rat; details: for change of total time of immobility in FST: Example 3, single i.p. 30 min before test, citalopram or paroxetine 10 mg/kg; for change of total time of immobility in FST / time of immobility in FST: prucalopride 2.5 mg/kg, RS 67333 1.5 mg/kg; for time of immobility in FST: 4 min observation, i.p. 30 min before test, control 88.2±7.2
Excerpt: The “forced swimming test” (FST) is a behavioural test for rodents, which predicts the efficacy of antidepressant drugs (Porsolt et al., 1977; Lucki, 1997). […] The widespread use of this model is largely a result of its ease of use, reliability across laboratories and ability to detect a broad spectrum of antidepressant agents. The test is based on the observation that rats, following initial escape-oriented movements (climbing and swimming), develop an immobile posture when placed in an inescapable cylinder of water. If they are replaced in the same testing apparatus 24 h later, they resume this immobile posture quickly. The immobility is thought to reflect either a failure of persistence in escape-directed behavior (i.e. behavioral despair) or the development of passive behavior that disengages the animal from active forms of coping with stressful stimuli. If antidepressant treatments are given between the two exposures, the subjects will actively persist engaging in escape-directed behaviors for longer periods of time than after vehicle treatment. This will be reflected by a reduction of immobility time, and by an increase of climbing attempts. […] The combination effect of a particular 5-HT4 agonist and a SSRI may be evaluated using the FST model.
Experiments were carried out in male Sprague-Dawley rats (Charles River, St Constant, Québec). We used the FST as previously described (Porsolt et al., 1977). Briefly, the rats experienced a pretest session followed 24 hours later by a test session. For both the pretest and the test sessions, conducted under low illumination (12 lx), the rats were placed in a plastic cylindrical tank (50 cm high by 20 cm in diameter) filled with water at […], with a depth of 40 cm, for which the hind limbs could not reach the tank floor. In all experiments, the pretest was carried out for 15 min and the test for 5 min in the same tank but only the last 4 min were analyzed. Following either pretest or test sessions, rats were dried with a towel and kept warm for 30 min before returning in their home cage. A digital camera recorded on line animal's behavior during the FST, and both time of immobility and climbing attempts were counted. Citalopram hydrobromide (10 mg/kg, i.p.) or paroxetine (10 mg/kg, i.p.) and prucalopride hydrochloride (2.5 mg/kg, i.p.) or RS 67333 hydrochloride (1.5 mg/kg, i.p.) were administered simultaneously 30 minutes before the test session. Animals were divided into 4 groups: vehicle/vehicle, 5-HT4 agonist/vehicle, vehicle/SSRI and 5-HT4 agonist/SSRI. For each compound, distilled water was used as the vehicle. All drug dosages refer to the free base.
Behavioral experiments. We used the FST as previously described (Porsolt et al., 1977). Briefly, rats experienced a pre-test session followed 24 hours later by a test session. For both the pre-test and the test sessions, conducted under low illumination (12 lx), the animals were placed in a plastic cylindrical tank (50 cm high by 20 cm in diameter) filled with water at […], with a depth of 40 cm, for which the hind limbs could not reach the tank floor. In all experiments, the pre-test was carried out for 15 min and the test for 5 min in the same tank but the last 4 min only were analyzed. Prucalopride (2.5 mg/kg, i.p.) and RS 67333 (1.5 mg/kg, i.p.) were administered 30 min before the test session. Following either pre-test or test sessions, rats were dried with a towel and kept warm for 30 min before returning in their home cage. A camera coupled with a computer recorded on line animal behavior during the FST through a specialized digital interface (Videotrack, ViewPoint, Lyon, France). This interface underscored on line the subtraction of video frames. Immobility time in FST was derived from the number of frames (every 40 ms) being below a predefined threshold over FST duration.

[2] = tested on: hippocampal CA3 pyramidal neurons; assay: Response of hippocampal CA3 pyramidal neurons to WAY 100635 after 3-day treatments (5-HT1A tonus); assay type: in vivo, rat; details: for 5-HT1A-mediated inhibitory tonus in the hippocampus: Example 7, 3 days, prucalopride 2.5, citalopram 10, RS 67333 1.5 mg/kg/day
Procedure: FIGS. 8A to 8C. […] Single-cell extracellular recordings were performed in the CA3 region of chloral-hydrate anaesthetized rats by using multiple-barrel glass microelectrodes, combined with microiontophoretic pumps (with the central barrel used for recordings). Pyramidal neurons were identified according to the classical criteria (see Example 5, the experimental procedures). The 5-HT4 agonists were administered through the use of osmotic minipumps, inserted subcutaneously in the region of the back. Recordings were performed with the minipumps still in place. *p<0.05, **p<0.01, ***p<0.001 vs control, Dunnett's test. […] FIG. 8C is a typical example showing the response of a single pyramidal neuron to cumulative doses of WAY 100635, in a rat co-administered with RS 67333 (same treatment as above for FIG. 8A) and the 5-HT depleter para-chlorophenylalanine (pCPA; 150 mg/kg, i.p. once daily 72, 48 and 24 h before the recordings).
Drugs and Chemicals. The following compounds were used: GR 125487 sulphamate, prucalopride monohydrochloride, citalopram hydrobromide (gifts from Glaxo, Janssen and Lundbeck laboratories, respectively), RS 67333 hydrochloride (Tocris Cookson Inc., Ellisville, Mo., USA), WAY 100635 hydrochloride (Research Biochemicals, Natick, Mass., USA), pCPA methyl ester hydrochloride, BrdU (Sigma-Aldrich Canada, Oakville, Ontario, Canada). All compounds were diluted in distilled water. All drug dosages refer to the free base. For chronic treatments, prucalopride (2.5 mg/kg/day), RS 67333 (1.5 mg/kg/day) or the vehicle were delivered through osmotic minipumps (Alza, Palo Alto, Calif., USA), inserted subcutaneously in the region of the back under short-duration (≦5 min) halothane anesthesia. The 5-HT depleter PCPA was administered once daily at the dose of 150 mg/kg, i.p., 72, 48 and 24 h before the recordings. BrdU treatments consisted of two administrations per day (50 mg/kg, i.p. each, 8 h interval), starting from the day of minipump insertion until day 2 post-surgery.
Microiontophoresis and extracellular recordings from hippocampal CA3 pyramidal neurons. Recording and microiontophoresis were performed with five-barreled glass micropipettes broken back to 8-12 μm under microscope control. The central barrel was filled with the same solution as in the DRN and was used for extracellular unitary recordings. Pyramidal neurons were identified by their large amplitude (0.5-1.2 mV) and long-duration (0.8-1.2 ms) simple spikes alternating with complex spike discharges (Kandel and Spencer, 1961). The side barrels contained the following solutions: quisqualate (1.5 mM in 200 mM NaCl, pH 8), WAY 100635 (15 mM in 200 mM NaCl, pH 4), and 2 M NaCl used for automatic current balancing. Rats were mounted in the stereotaxic apparatus and the micropipettes were lowered at 4.2 mm lateral and 4.2 anterior to lambda into the CA3 sub-region of the dorsal hippocampus.
The firing activity of dorsal hippocampus pyramidal neurons was then recorded in the CA3 subfield, before and after systemic administration of the selective 5-HTLA antagonist WAY 100635.

DRN 5-HT neurons = details: cited from earlier work; for enhancement of DRN 5-HT neuron mean firing rate: Lucas et al., 2005
[3] = cumulative i.v. WAY 100635 500 μg/kg, 3-day prucalopride 2.5 mg/kg/day or RS 67333 1.5 mg/kg/day
[4] = acute prucalopride 1000 μg/kg i.v., Lucas and Debonnel, 2002

Compound | change of total time of immobility in FST [1] | time of immobility in FST ([1]; Example 6) | increase of climbing in FST ([1]; Example 6, RS 67333 1.5 mg/kg i.p.) | CA3 pyramidal neuron activity after WAY 100635 ([2]; 3-day RS 67333, as restated in the Discussion) | quisqualate ejection currents required to obtain basal firing ([2]; 3-day treated groups, controls 0 to −2 nA) | 5-HT1A-mediated inhibitory tonus in the hippocampus [2] | firing activity of CA3 pyramidal neurons after WAY 100635 ([2]; cumulative i.v. WAY 100635 200 μg/kg, 3-day RS 67333 1.5 mg/kg/day) | firing activity of CA3 pyramidal neurons after WAY 100635 ([2]; cumulative i.v. WAY 100635 300 μg/kg, 3-day RS 67333 1.5 mg/kg/day) | firing activity of CA3 pyramidal neurons after WAY 100635 [2, 3] | enhancement of DRN 5-HT neuron mean firing rate (DRN 5-HT neurons) | increase of DRN 5-HT activity in responder neurons (DRN 5-HT neurons; [4]) | share of 5-HT neurons responding ("responders") (DRN 5-HT neurons; [4])
CCCCN1CCC(CCC(=O)c2cc(Cl)c(N)cc2OC)CC1 [RS 67333, 1-(4-amino-5-chloro-2-methoxyphenyl)-3-(1-n-burtl-4-piperidinyl)-1-propanone] | very similar effect | 42.7 ± 4.9 s | +94% | up to 440 % of pre-drug values | −4 to −6 nA | strong tonic inhibition | 276 (±52) % of basal values | 378 (±43) % of basal values | 445 (±60) % of baseline | 70% |  | 
COCCCN1CCC(NC(=O)c2cc(Cl)c(N)c3c2OCC3)CC1 [prucalopride] | −54% | 43.4 ± 3.5 s |  |  |  | modest inhibitory tonus |  |  | 191 (±31) % of baseline | 40-45% | around 100% | 47%
